Among the data in patent US20240148821A1, “PHARMACEUTICAL USE OF CYCLIC PEPTIDE COMPOUND” (CHUGAI SEIYAKU KABUSHIKI KAISHA, priority 2021, published 2024) are IC50 values, retold here.

Each structure is given as a SMILES string. Numbered stars: 1 amine (or outer) side, 2 acyl side, 3 side chain; on linkers, the order of the positions; unused ones are H or OH. Bridge positions count the residues as written; N and C are the ends. Square brackets hold non-standard residues; d marks the D form. Peptide text beside a SMILES is read from it. * marks the point of attachment. hPhe(3-Cl-4-CF3) = N[C@@H](CCc1ccc(C(F)(F)F)c(Cl)c1)C(=O)O; X27 = CN([C@@H](Cc1ccc(C(F)(F)F)nc1)C(=O)[*:2])[*:1]; Thiomorpholino(1,1-dioxo) = O=S1(=O)CCN(*)CC1; NMePhe(3-Br) = CN[C@@H](Cc1cccc(Br)c1)C(=O)O; NMePhe(4-Cl) = CN[C@@H](Cc1ccc(Cl)cc1)C(=O)O; NMeNle(6-CHF2) = CN[C@@H](CCCCC(F)F)C(=O)O; NMePhe(3-F) = CN[C@@H](Cc1cccc(F)c1)C(=O)O; NMeGly(cPent) = CN[C@H](C(=O)O)C1CCCC1; Pro(4,4-F2) = O=C(O)[C@@H]1CC(F)(F)CN1; NMeCha = CN[C@@H](CC1CCCCC1)C(=O)O; NMeChg = CN[C@H](C(=O)O)C1CCCCC1; NMeF = CN[C@@H](Cc1ccccc1)C(=O)O; NMeI = CC[C@H](C)[C@H](NC)C(=O)O; NMeD = CN[C@@H](CC(=O)O)C(=O)O; NMeL = CN[C@@H](CC(C)C)C(=O)O; Oxazolidin(3-yl) = C1CN(*)CO1; NMeNva = CCC[C@H](NC)C(=O)O; NMeV = CN[C@H](C(=O)O)C(C)C; d(β3hA) = C[C@@H](N)CC(=O)O; NMeA = CN[C@@H](C)C(=O)O; Piperidide = C1CCN(*)CC1; Pyrrolidide = C1CCN(*)C1; Ac5c = NC1(C(=O)O)CCCC1; Aze = O=C(O)[C@@H]1CCN1; βAla = NCCC(=O)O; Sar = CNCC(=O)O

The experiment concerns Human pancreatic cancer cell line AsPC-1 (G12D mutation Kras). Description: AsPC-1 cell growth inhibition (AsPC-1 CGI). In kind it is cell-based. As to conditions: read-out: AsPC-1 cell growth inhibition, 50% growth inhibitory concentration (IC50 value); 96 hours, CellTiter-Glo, values classified in ranges. Background: ATP-based viability assays read luminescence as a measure of living cells.
Protocol: Test compounds were serially dilated with dimethyl sulfoxide, and 200 nL was then dispensed to a U-bottom 96-well plate using Labcyte Echo. […] The cell suspension was dispensed to a. plate containing a test compound at 100 μL per well and incubated at 37° C. in a 5% carbon dioxide gas incubator. 96 hours later, 80 μL of CellTiter-Glo (Promega) was added to each well and fluorescence was measured.
Take `CC[C@H](C)[C@@H]1NC(=O)[C@H](C)N(C)C(=O)C[C@@H](C)NC(=O)[C@H](C(C)C)N(C)C(=O)[C@H](Cc2ccccc2)N(C)C(=O)[C@H](CC(C)C)N(C)C(=O)[C@H](CCc2ccc(C(F)(F)F)c(Cl)c2)NC(=O)CN(C)C(=O)[C@H](Cc2ccc(Cl)cc2)N(C)C(=O)CN(C)C(=O)CN(C)C1=O` [Compound 1079] (cyclo(I[Sar][Sar][NMePhe(4-Cl)][Sar][hPhe(3-Cl-4-CF3)][NMeL][NMeF][NMeV][d(β3hA)][NMeA])): the IC50 is greater than 500 nM.
Then `CC[C@H](C)[C@@H]1NC(=O)CCNC(=O)[C@H](Cc2cccc(F)c2)N(C)C(=O)[C@H](C2CCCCC2)N(C)C(=O)C2(CCCC2)NC(=O)[C@@H]2CCCN2C(=O)[C@H](CCc2ccc(C(F)(F)F)c(Cl)c2)NC(=O)CN(C)C(=O)[C@H](CC2CCCCC2)N(C)C(=O)CN(C)C(=O)CN(C)C1=O` [Compound 237] (cyclo([Ac5c][NMeChg][NMePhe(3-F)][βAla]I[Sar][Sar][NMeCha][Sar][hPhe(3-Cl-4-CF3)]P)), with greater than 500 nM; and `CC[C@H](C)[C@@H]1NC(=O)[C@H](CC(C)C)N(C)C(=O)C[C@@H](C(=O)N2CCOC2)NC(=O)[C@H]([C@@H](C)CC)N(C)C(=O)C2(CCCC2)NC(=O)[C@@H]2CCCN2C(=O)[C@H](CCc2ccc(C(F)(F)F)c(Cl)c2)NC(=O)CN(C)C(=O)[C@H](CC2CCCCC2)N(C)C(=O)CN(C)C(=O)CN(C)C1=O` [Compound 1247] ([NMeL]I[Sar][Sar][NMeCha][Sar][hPhe(3-Cl-4-CF3)]P[Ac5c][NMeI]D-{Oxazolidin(3-yl)}; lactam N-11), with greater than 500 nM; and `CC[C@H](C)[C@@H]1NC(=O)[C@H](CC(C)C)N(C)C(=O)C[C@@H](C(=O)N2CCCCC2)N(C)C(=O)[C@H](C2CCCCC2)N(C)C(=O)C2(CCCC2)NC(=O)[C@H](Cc2ccc(C(F)(F)F)nc2)N(C)C(=O)[C@H](CCc2ccc(C(F)(F)F)c(Cl)c2)NC(=O)CN(C)C(=O)[C@H](CC2CCCCC2)N(C)C(=O)[C@@H]2CCN2C(=O)CN(C)C1=O` [Compound 6] ([NMeL]I[Sar][Aze][NMeCha][Sar][hPhe(3-Cl-4-CF3)][X27][Ac5c][NMeChg][NMeD]-Piperidide; lactam N-11), with greater than 500 nM.
Then `CC[C@H](C)[C@@H]1NC(=O)[C@H](C)N(C)C(=O)C[C@@H](C)NC(=O)[C@H](C2CCCC2)N(C)C(=O)C2(CCCC2)NC(=O)[C@@H]2CCCN2C(=O)[C@H](CCc2ccc(C(F)(F)F)c(Cl)c2)NC(=O)CN(C)C(=O)[C@H](Cc2ccc(Cl)cc2)N(C)C(=O)[C@@H]2CCCN2C(=O)CN(C)C1=O` [Compound 549] (cyclo([Ac5c][NMeGly(cPent)][d(β3hA)][NMeA]I[Sar]P[NMePhe(4-Cl)][Sar][hPhe(3-Cl-4-CF3)]P)), with greater than 500 nM.
Then `CC[C@H](C)[C@@H]1NC(=O)[C@H](CC(C)C)N(C)C(=O)C[C@@H](C(=O)N2CCCCC2)N(C)C(=O)[C@H](CCCCC(F)F)N(C)C(=O)C2(CCCC2)NC(=O)[C@@H]2CCCN2C(=O)[C@H](CCc2ccc(C(F)(F)F)c(Cl)c2)NC(=O)CN(C)C(=O)[C@H](CC2CCCCC2)N(C)C(=O)CN(C)C(=O)CN(C)C1=O` [Compound 653] ([NMeL]I[Sar][Sar][NMeCha][Sar][hPhe(3-Cl-4-CF3)]P[Ac5c][NMeNle(6-CHF2)][NMeD]-Piperidide; lactam N-11), with greater than 500 nM.
With `CC[C@H](C)[C@@H]1NC(=O)[C@H](CC(C)C)N(C)C(=O)C[C@@H](C)NC(=O)[C@H](C(C)C)N(C)C(=O)C2(CCCC2)NC(=O)[C@@H]2CCCN2C(=O)[C@H](CCc2ccc(C(F)(F)F)c(Cl)c2)NC(=O)CN(C)C(=O)[C@H](Cc2cccc(Br)c2)N(C)C(=O)CN(C)C(=O)CN(C)C1=O` [Compound 1587] (cyclo([Ac5c][NMeV][d(β3hA)][NMeL]I[Sar][Sar][NMePhe(3-Br)][Sar][hPhe(3-Cl-4-CF3)]P)), the IC50 is greater than 500 nM.
Then `CCC[C@H]1C(=O)N[C@@H]([C@@H](C)CC)C(=O)N(C)CC(=O)N(C)CC(=O)N(C)[C@@H](CC2CCCCC2)C(=O)N(C)CC(=O)N[C@@H](CCc2ccc(C(F)(F)F)c(Cl)c2)C(=O)N2CC(F)(F)C[C@H]2C(=O)NC2(CCCC2)C(=O)N(C)[C@@H](C2CCCCC2)C(=O)N(C)[C@H](C(=O)N2CCCC2)CC(=O)N1C` [Compound 1232] ([NMeNva]I[Sar][Sar][NMeCha][Sar][hPhe(3-Cl-4-CF3)][Pro(4,4-F2)][Ac5c][NMeChg][NMeD]-Pyrrolidide; lactam N-11), with no more than 20 nM; and `CC[C@H](C)[C@@H]1NC(=O)[C@H](CC(C)C)N(C)C(=O)C[C@@H](C(=O)N2CCS(=O)(=O)CC2)N(C)C(=O)[C@H](C2CCCCC2)N(C)C(=O)C2(CCCC2)NC(=O)[C@@H]2CCCN2C(=O)[C@H](CCc2ccc(C(F)(F)F)c(Cl)c2)NC(=O)CN(C)C(=O)[C@H](CC2CCCCC2)N(C)C(=O)CN(C)C(=O)CN(C)C1=O` [Compound 1263] ([NMeL]I[Sar][Sar][NMeCha][Sar][hPhe(3-Cl-4-CF3)]P[Ac5c][NMeChg][NMeD]-{Thiomorpholino(1,1-dioxo)}; lactam N-11), with greater than 500 nM.
